ChEMBL document CHEMBL3885861, “Open TG-GATES”

Species: Rattus norvegicus
Assay: Open TG-GATES - Regimen: Single
Assay type: toxicity, organism-based, Sprague-Dawley
Design: regimen Single, gender Male, age 6 weeks
Conditions: in vivo, po, 1000 mg/kg, route gavage, dose level High; for APTT / Bas / Eos / Fbg / Hb / Ht / Lym / MCH / MCHC / MCV / Mono / Neu / PT / Plat / RBC / Ret / WBC: tissue Blood; for KIDNEY_L / KIDNEY_R / KIDNEY_TOTAL: tissue Kidney; for LIVER: tissue Liver; for A/G / ALP / ALT / AST / BUN / CRE / Ca / Cl / DBIL / GLC / IP / K / LDH / Na / PL / RALB / TBIL / TC / TG / TP / gamma-GTP: tissue Plasma

O=C(OC[C@H]1O[C@@H](OC(=O)c2cc(O)c(O)c(OC(=O)c3cc(O)c(O)c(O)c3)c2)[C@H](OC(=O)c2cc(O)c(O)c(OC(=O)c3cc(O)c(O)c(O)c3)c2)[C@@H](OC(=O)c2cc(O)c(O)c(OC(=O)c3cc(O)c(O)c(O)c3)c2)[C@@H]1OC(=O)c1cc(O)c(O)c(OC(=O)c2cc(O)c(O)c(O)c2)c1)c1cc(O)c(O)c(OC(=O)c2cc(O)c(O)c(O)c2)c1 [TANNIC ACID]
TERMINAL_BW (3 h): 189.4 g
APTT (3 h): 17.2 s
Bas (3 h): 0%
Eos (3 h): 1%
Fbg (3 h): 221.2 mg/dL
Hb (3 h): 13 g/dL
Ht (3 h): 38.9%
Lym (3 h): 81.6%
MCH (3 h): 21.7 pg
MCHC (3 h): 33.3%
MCV (3 h): 65.1 fL
Mono (3 h): 4.8%
Neu (3 h): 12.8%
PT (3 h): 11.9 s
Plat (3 h): 110.6 x10_4/uL
RBC (3 h): 597.4 x10_4/ul
Ret (3 h): 10.3%
WBC (3 h): 104.1 x10_2/uL
KIDNEY_L (3 h): 0.9 g
KIDNEY_R (3 h): 0.9 g
KIDNEY_TOTAL (3 h): 1.8 g
LIVER (3 h): 8.5 g
A/G (3 h): 2
ALP (3 h): 805 IU/L
ALT (3 h): 39.6 IU/L
AST (3 h): 69.6 IU/L
BUN (3 h): 12.2 mg/dL
CRE (3 h): 0.4 mg/dL
Ca (3 h): 10.8 mg/dL
Cl (3 h): 104.6 meq/L
DBIL (3 h): 0.016 mg/dL
GLC (3 h): 191.4 mg/dL
IP (3 h): 10.2 mg/dL
K (3 h): 4.9 meq/L
LDH (3 h): 101.8 IU/L
Na (3 h): 138.2 meq/L
PL (3 h): 128.2 mg/dL
RALB (3 h): 3.7 g/dL
TBIL (3 h): 0.5 mg/dL
TC (3 h): 72.8 mg/dL
TG (3 h): 35.8 mg/dL
TP (3 h): 5.5 g/dL
gamma-GTP (3 h): 1.2 IU/L
TERMINAL_BW (6 h): 183.9 g
APTT (6 h): 16.7 s
Bas (6 h): 0%
Eos (6 h): 1%
Fbg (6 h): 211 mg/dL
Hb (6 h): 13.5 g/dL
Ht (6 h): 40.6%
Lym (6 h): 76.2%
MCH (6 h): 22 pg
MCHC (6 h): 33.3%
MCV (6 h): 66.1 fL
Mono (6 h): 7%
Neu (6 h): 16.2%
PT (6 h): 12 s
Plat (6 h): 115.1 x10_4/uL
RBC (6 h): 613.8 x10_4/ul
Ret (6 h): 9.7%
WBC (6 h): 101 x10_2/uL
KIDNEY_L (6 h): 0.9 g
KIDNEY_R (6 h): 0.9 g
KIDNEY_TOTAL (6 h): 1.8 g
LIVER (6 h): 7.5 g
A/G (6 h): 1.8
ALP (6 h): 682.8 IU/L
ALT (6 h): 41.4 IU/L
AST (6 h): 68.8 IU/L
BUN (6 h): 11.4 mg/dL
CRE (6 h): 0.4 mg/dL
Ca (6 h): 10.6 mg/dL
Cl (6 h): 105.8 meq/L
DBIL (6 h): 0.008 mg/dL
GLC (6 h): 183.4 mg/dL
IP (6 h): 11 mg/dL
K (6 h): 5 meq/L
LDH (6 h): 81.4 IU/L
Na (6 h): 138.8 meq/L
PL (6 h): 113.6 mg/dL
RALB (6 h): 3.4 g/dL
TBIL (6 h): 0.7 mg/dL
TC (6 h): 65.2 mg/dL
TG (6 h): 22.2 mg/dL
TP (6 h): 5.3 g/dL
gamma-GTP (6 h): 1.2 IU/L
TERMINAL_BW (9 h): 185.5 g
APTT (9 h): 16.9 s
Bas (9 h): 0%
Eos (9 h): 1%
Fbg (9 h): 221 mg/dL
Hb (9 h): 13.1 g/dL
Ht (9 h): 39.1%
Lym (9 h): 73%
MCH (9 h): 22.3 pg
MCHC (9 h): 33.6%
MCV (9 h): 66.5 fL
Mono (9 h): 8%
Neu (9 h): 18.4%
PT (9 h): 12.3 s
Plat (9 h): 119.4 x10_4/uL
RBC (9 h): 589.2 x10_4/ul
Ret (9 h): 9.2%
WBC (9 h): 87.8 x10_2/uL
KIDNEY_L (9 h): 0.9 g
KIDNEY_R (9 h): 0.8 g
KIDNEY_TOTAL (9 h): 1.7 g
LIVER (9 h): 7.1 g
A/G (9 h): 2.3
ALP (9 h): 772.8 IU/L
ALT (9 h): 42.4 IU/L
AST (9 h): 68.8 IU/L
BUN (9 h): 12.2 mg/dL
CRE (9 h): 0.4 mg/dL
Ca (9 h): 10.2 mg/dL
Cl (9 h): 106.8 meq/L
DBIL (9 h): 0.08 mg/dL
GLC (9 h): 193 mg/dL
IP (9 h): 10.8 mg/dL
K (9 h): 5 meq/L
LDH (9 h): 69 IU/L
Na (9 h): 137 meq/L
PL (9 h): 113.8 mg/dL
RALB (9 h): 3.7 g/dL
TBIL (9 h): 0.9 mg/dL
TC (9 h): 61.6 mg/dL
TG (9 h): 16 mg/dL
TP (9 h): 5.4 g/dL
gamma-GTP (9 h): 2 IU/L
TERMINAL_BW (24 h): 198.6 g
APTT (24 h): 17.8 s
Bas (24 h): 0%
Eos (24 h): 1%
Fbg (24 h): 221.4 mg/dL
Hb (24 h): 12.6 g/dL
Ht (24 h): 38.2%
Lym (24 h): 75.2%
MCH (24 h): 21.5 pg
MCHC (24 h): 33.1%
MCV (24 h): 64.8 fL
Mono (24 h): 9.2%
Neu (24 h): 15%
PT (24 h): 11.8 s
Plat (24 h): 104.8 x10_4/uL
RBC (24 h): 588.8 x10_4/ul
Ret (24 h): 9.3%
WBC (24 h): 91 x10_2/uL
KIDNEY_L (24 h): 0.9 g
KIDNEY_R (24 h): 0.9 g
KIDNEY_TOTAL (24 h): 1.7 g
LIVER (24 h): 9.2 g
A/G (24 h): 1.9
ALP (24 h): 893.8 IU/L
ALT (24 h): 36.4 IU/L
AST (24 h): 62.4 IU/L
BUN (24 h): 18 mg/dL
CRE (24 h): 0.5 mg/dL
Ca (24 h): 10.8 mg/dL
Cl (24 h): 104.2 meq/L
DBIL (24 h): 0 mg/dL
GLC (24 h): 184 mg/dL
IP (24 h): 7.8 mg/dL
K (24 h): 4.6 meq/L
LDH (24 h): 110.8 IU/L
Na (24 h): 138.6 meq/L
PL (24 h): 133.4 mg/dL
RALB (24 h): 3.5 g/dL
TBIL (24 h): 0.3 mg/dL
TC (24 h): 72.2 mg/dL
TG (24 h): 79.6 mg/dL
TP (24 h): 5.4 g/dL
gamma-GTP (24 h): 0.8 IU/L
